Experimental data reported in paper PMC11355700, “Antioxidant and Skin-Whitening Efficacy of a Novel Decapeptide (DP, [sequence]) Derived from Fish By-Products” (Marine Drugs, 2024).

Tests used:
B16F10 melanoma cells [1] = test: Melanin content and morphology in α-MSH-induced B16F10 melanoma cells; assay type: cell-based, mouse; conditions: for Melanin content: α-MSH (200 nM) 24 h, α-MSH treated group 152.36%, 405 nm
Protocol: (§1) B16F10 melanoma cells were obtained from the KCLB and cultured in DMEM medium supplemented with 10% FBS (Gibco BRL, Grand Island, NY, USA) and 1% penicillin. The cells were incubated in a humidified incubator at 37 °C and 5% CO2.
To measure melanin production in B16F10 cells, cells were seeded in 6-well plates at a density of 5 × 10^4 cells/well. After 24 h, the medium was replaced with fresh medium containing 2% FBS, 200 nM α-MSH, and various concentrations of DP. […] After incubation, the cells were washed with PBS, harvested by centrifugation, and the melanin content was visually inspected. The harvested cells were dissolved in 400 μL of 0.2 N NaOH solution and incubated at 60 °C for 1 h. The absorbance was measured at 405 nm using a microplate reader.

[2] = Ferric reducing antioxidant power (FRAP); assay type: biochemical; conditions: FRAP reagent pH 3.6, 5 min, 37 °C, 593 nm, n = 3
Protocol: FRAP was measured using the method adapted from Benzie and Strain [46]. The FRAP reagent was prepared by mixing a 300 mM sodium acetate buffer (pH 3.6), a 10 mM 2,4,6-tripyridyl-s-triazine (TPTZ) solution dissolved in 40 mM HCl, and a 20 mM FeCl3 solution in a 10:1:1 ratio just before the experiment. A 10 μL sample of each concentration was mixed with 200 μL of FRAP reagent, incubated for 5 min at 37 °C, and then the absorbance was measured at 593 nm using a Microplate Spectrophotometer (xMarkTM, BIO-RAD, Hercules, CA, USA). The FRAP value of the sample was determined by applying the absorbance values to a standard calibration curve prepared with 0–5 mM FeSO4·H2O, and the results were expressed as FeSO4 equivalent mM/μM.

[3] = previous research; cited from earlier work
Excerpt: (§2) This study aims to evaluate the antioxidant and skin-whitening effects of this novel decapeptide (DP) through in vitro and in silico analyses and to establish its potential as a new skin-whitening agent.

tyrosinase = conditions: previous research; cited from earlier work
Excerpt: as §2

tyrosinase mRNA = test: RT-PCR of tyrosinase mRNA in α-MSH-stimulated B16F10 cells; assay type: cell-based, mouse; conditions: 0.1, 1, and 10 μM; α-MSH 200 nM; normalized to GAPDH
Protocol: as §1
(§3) Total RNA was extracted using the High Pure RNA Isolation Kit (Invitrogen Co., Waltham, MA, USA) according to the manufacturer’s instructions and quantified using a NanoDrop (Thermo Scientific, Waltham, MA, USA). For the reverse transcription reaction, 1 μg of isolated RNA and 1 μL of oligo DT (100 pM) were combined with DEPC to a total volume of 11 μL, followed by the reverse transcription reaction using the RT Premix Kit (Bioneer Co., Daejeon, Republic of Korea) as per the manufacturer’s protocol. PCR for MITF, Tyrosinase, and MC1R genes was conducted using 2 μL of the cDNA products obtained from the reverse transcription reaction, with the PCR Premix Kit (Bioneer Co.) according to the manufacturer’s instructions. The cDNA products amplified by reverse transcription and polymerase chain reaction were analyzed by electrophoresis on 2.0% agarose gels containing ethidium bromide.

HaCaT cells [4] = test: ROS generation (DCFH-DA) in H2O2-treated HaCaT cells; assay type: cell-based, human; conditions: DP 50, 100, 200 μM; H2O2 500 μM, 24 h; DCFH-DA 25 μM, 30 min; n = 3
Protocol: (§4) The cell line used in the experiment, the HaCaT cell line, a human keratinocyte, was purchased from the Korea Cell Line Bank (KCLB, Seoul, Republic of Korea). HaCaT cells were cultured in a DMEM medium supplemented with 10% FBS and 1% penicillin–streptomycin. The cells were subcultured every 2 to 3 days in an incubator maintained at 37 °C and 5% CO2.
HaCaT cells were seeded at 1 × 10^4 cells per well in a 96-well black plate and cultured for 24 h. The cultured cells were treated with DP at concentrations of 50, 100, and 200 μM and then exposed to 500 μM H2O2 for 24 h to induce ROS generation. After H2O2 treatment, the cells were stained with 25 μM dichlorodihydro-fluorescein diacetate (DCFH-DA) for 30 min. The fluorescence intensity corresponding to intracellular ROS production was measured using a fluorescent spectrophotometer at an excitation wavelength of 485 nm and an emission wavelength of 530 nm. The results were expressed as ROS production (%) relative to the fluorescence measurement value of the untreated control, which was set to 100.

MITF mRNA = test: RT-PCR of MITF mRNA in α-MSH-stimulated B16F10 cells; assay type: cell-based, mouse; conditions: 0.1, 1, and 10 μM; α-MSH 200 nM; normalized to GAPDH
Protocol: as §1, §3

HaCaT cells [5] = test: Cell viability (MTT) of H2O2-treated HaCaT cells; assay type: cell-based, human; conditions: DP 50, 100, 200 μM with H2O2 500 μM, 24 h, n = 3
Protocol: as §4
To assess the cytotoxicity of DP and H2O2, cells (1 × 10^4 in a 96-well plate) were cultured at 37 °C and 5% CO2 for 24 h. The cultured cells were then treated with DP and H2O2. After 24 h of treatment, 10 μL of MTT (5 mg/mL) solution was added, and the cells were incubated for 4 h. Following this, the supernatant was removed, and 100 μL of DMSO was added to each well. The absorbance was measured at 550 nm using an ELISA reader.

MC1R mRNA = test: RT-PCR of MC1R mRNA in α-MSH-stimulated B16F10 cells; assay type: cell-based, mouse; conditions: 0.1, 1, and 10 μM; α-MSH 200 nM; normalized to GAPDH
Protocol: as §1, §3

mushroom tyrosinase = test: Tyrosinase inhibitory activity (DOPA chrome formation); assay type: biochemical; conditions: DL-DOPA substrate, pH 6.8, 37 °C, 10 min, 475 nm
Protocol: The inhibitory activity of tyrosinase, which is involved in the key steps of melanin synthesis, was measured using a colorimetric method modified from Masamoto et al. by detecting the formation of DOPA chrome as a result of the enzyme’s action. As a substrate, a mixture containing 0.2 mL of 5 mM DL-DOPA solution, 0.2 mL of 0.1 M phosphate buffer (pH 6.8), and 0.5 mL of sample solution was prepared. To this mixture, 0.1 mL of mushroom tyrosinase (Sigma Co., 250 unit/mL) was added and incubated at 37 °C for 10 min. After incubation, the absorbance was measured at a wavelength of 475 nm to calculate the tyrosinase inhibitory activity.

[6] = ABTS radical scavenging activity; assay type: biochemical; conditions: n = 3
Protocol: The ABTS radical scavenging activity of C. notate head hydrolysate was determined by an adaptation of the ABTS radical cation decolorization assay of Re et al.. A 7 mM ABTS solution and a 2.45 mM potassium persulfate (Sigma Co., Fukushima, Japan) solution were mixed (v/v) to a final concentration and allowed to stand in the dark at room temperature (RT) for 24 h. Afterward, distilled water was added to dilute the solution until the absorbance at 732 nm reached 0.70 (±0.02). Then, 990 μL of this diluted ABTS solution was mixed with 10 μL of the sample solution and incubated at RT for 1 min. The absorbance was measured at 732 nm (Figure 1).

B16F10 melanoma cells [7] = test: Cytotoxicity (MTT) in B16F10 melanoma cells; assay type: cell-based, mouse; conditions: 12.5, 50, and 100 μM, 24 h
Protocol: as §1
To determine the cytotoxicity of DP and establish the concentration range for the experiment, an MTT assay was conducted. Cells were seeded in 96-well plates at a density of 1.0 × 10^4 cells/well. After 24 h, once the cells were fully attached, the medium was replaced with fresh medium containing 200 nM α-MSH and various concentrations of DP. After another 24 h of incubation, an MTT assay was performed.

KGYSSYICDK [DP]
Melanin content (B16F10 melanoma cells [1]; 0.1 μM): 120.32% | Melanin content (B16F10 melanoma cells [1]; 1 μM): 105.24% | Melanin content (B16F10 melanoma cells [1]; 10 μM): 83.21% | Melanin formation, morphological observation (B16F10 melanoma cells [1]; starting from 0.1 μM, α-MSH 200 nM, 200× magnification): melanin formation was inhibited starting from the 0.1 μM concentration | FRAP activity vs Vitamin C ([2]; 1000 μM, p < 0.05): significant activity at 1000 μM, comparable to Vitamin C | FRAP activity, concentration dependence ([2]; FeSO4 equivalents): dose-dependent FRAP activity | Free radical scavenging activity [3]: free radical scavenging | Tyrosinase inhibitory activity (tyrosinase): tyrosinase inhibitory activities | Tyrosinase mRNA level (tyrosinase mRNA): dose-dependent and significant decrease | ROS levels in H2O2-treated HaCaT cells (HaCaT cells [4]): significantly reduced | MITF mRNA level (MITF mRNA): dose-dependent and significant decrease | Cell viability of H2O2-treated HaCaT cells (HaCaT cells [5]): enhanced cell viability in a dose-dependent manner | MC1R mRNA level (MC1R mRNA): dose-dependent and significant decrease | Tyrosinase inhibitory activity (mushroom tyrosinase; 62.5 μM): 7.05% | Tyrosinase inhibitory activity (mushroom tyrosinase; 125 μM): 19.62% | Tyrosinase inhibitory activity (mushroom tyrosinase; 250 μM): 26.29% | Tyrosinase inhibitory activity (mushroom tyrosinase; 500 μM): 62.67% | Tyrosinase inhibitory activity (mushroom tyrosinase; 1000 μM): 84.38% | ABTS radical scavenging, concentration dependence ([6]; 732 nm): concentration-dependent ABTS radical scavenging activity | ABTS radical scavenging ([6]; concentrations above 20 μM, 732 nm): over 90% | ABTS radical scavenging vs Vit. C ([6]; concentrations above 20 μM, p < 0.05): significantly outperforming Vit. C | Cytotoxicity in B16F10 melanoma cells (B16F10 melanoma cells [7]): No cytotoxicity was observed
